Laboratory results published in PMC11882969 (Nature Communications, 2025).
Values joined by “and” are separate entries in the source; they are usually repeats but may differ in a detail not shown here. Equal entries are not always repeated. Where two headings read alike, the source gives them in different places. Marks after values point to notes of the source that are not given here.

How the values were obtained:
[1] = molecular target: T1, CB1 (rCB1) (Rattus norvegicus, UniProt P20272); test: Single-point radioligand displacement screen; format: binding
[2] = Dynamic light scattering, colloidal aggregation; format: physicochemical; conditions: Log[compound, replicates, sheet FigS2b
Protocol: Samples were prepared as 8-point half-log dilutions in filtered 50 mM KPi buffer, pH 7.0 with final DMSO concentration at 1% (v/v). Colloidal particle formation was measured using DynaPro Plate Reader II (Wyatt Technologies). All compounds were screened in triplicate.

[3] = molecular target: T2, hCB1 (Homo sapiens, UniProt P21554); test: Lance Ultra cAMP accumulation assay, CHO cells; format: cell-based; parameters: expressed in transfected cells; conditions: for cAMP assay signal, concentration-response point: replicates, sheet FigureS2a;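 as to all read-outs here: human CB1R stably expressed in CHO cells, ligands co-incubated with forskolin at room temperature, read-out is lowering of forskolin-stimulated cAMP accumulation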
[4] = molecular target: T2, hCB1; test: bioSensAll ebBRET signaling profiling, hCB1; format: cell-based; parameters: host or cells: HEK293SL cells, transient PEI transfection; conditions: for Barr2+GRK2 hCB1 response: Barr2+GRK2 biosensor; for Gi1 hCB1 / GoB hCB1: single replicate values, FigS6a; for Emax: normalized to CP-55,940
[5] = molecular target: T1, CB1 (rCB1); test: Radioligand competition binding, [3H]-CP-55,940, rat brain membranes

T1 sequence (P20272 whole entry): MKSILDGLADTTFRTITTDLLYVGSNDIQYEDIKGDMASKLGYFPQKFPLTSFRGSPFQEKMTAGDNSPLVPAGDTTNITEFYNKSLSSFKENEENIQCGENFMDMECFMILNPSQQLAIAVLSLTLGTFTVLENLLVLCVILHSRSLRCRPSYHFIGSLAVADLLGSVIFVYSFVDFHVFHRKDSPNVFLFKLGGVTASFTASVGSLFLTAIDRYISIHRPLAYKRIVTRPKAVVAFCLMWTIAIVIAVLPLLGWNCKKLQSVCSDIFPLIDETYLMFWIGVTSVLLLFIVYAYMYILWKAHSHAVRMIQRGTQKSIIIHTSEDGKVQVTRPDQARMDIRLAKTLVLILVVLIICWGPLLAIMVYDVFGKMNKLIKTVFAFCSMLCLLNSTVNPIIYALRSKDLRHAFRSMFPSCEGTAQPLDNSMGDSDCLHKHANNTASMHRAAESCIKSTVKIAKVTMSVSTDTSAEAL
T2 sequence (P21554 whole entry): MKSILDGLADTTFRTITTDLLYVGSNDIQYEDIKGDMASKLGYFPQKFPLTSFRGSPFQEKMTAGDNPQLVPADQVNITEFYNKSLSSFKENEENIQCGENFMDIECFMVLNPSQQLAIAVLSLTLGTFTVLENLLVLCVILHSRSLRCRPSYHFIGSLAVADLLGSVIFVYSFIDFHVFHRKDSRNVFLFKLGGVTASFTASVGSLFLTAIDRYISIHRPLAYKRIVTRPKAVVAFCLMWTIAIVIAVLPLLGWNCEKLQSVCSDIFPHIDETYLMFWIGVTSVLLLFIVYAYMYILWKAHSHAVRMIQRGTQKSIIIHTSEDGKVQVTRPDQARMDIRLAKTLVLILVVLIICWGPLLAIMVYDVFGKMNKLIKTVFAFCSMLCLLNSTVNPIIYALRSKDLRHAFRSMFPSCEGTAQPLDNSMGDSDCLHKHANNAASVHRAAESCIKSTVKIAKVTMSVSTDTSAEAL

For `Cn1nc(-c2nnc(C(C)(C)Oc3ccc(Cl)cc3)o2)c2ccccc2c1=O` [‘0450], the “% 1H-CP-55,940 displacement (mean) from single point screen” value ([1]; 10 µM, 1 µM or 300 nM by cell colour (not visible)) was 80.28%, the rep1_displacement ([1]; Figure 1c source data, replicate 1) was 80.6 and the rep2_displacement ([1]; Figure 1c source data, replicate 2) was 81.2. For the same compound, the rep3_displacement ([1]; Figure 1c source data, replicate 3) was 79, the DLS scattering intensity ([2]; uM] 0) was 721249 and 1482870 and 678793 and the DLS scattering intensity ([2]; uM] 0.5) was 820738 and 723783 and 889231. For the same compound, the DLS scattering intensity ([2]; uM] 1) was 2818066 and 935392 and 954008, the DLS scattering intensity ([2]; uM] 1.49996) was 37596765 and 31006318 and 24739178 and the DLS scattering intensity ([2]; uM] 2) was 93917555 and 151664189 and 85385693. The DLS scattering intensity ([2]; uM] -0.500011) was 759174 and 1269323 and 983915, the DLS scattering intensity ([2]; uM] -1) was 623247 and 1064137 and 868483 and the DLS scattering intensity ([2]; uM] -1.5) was 703949 and 596678 and 546381. The “cAMP assay signal, concentration-response point” value (“cAMP assay signal” for short) ([3]; compound 0.01 nM) was 0.002801 and 0.002457 and 0.003311, the “cAMP assay signal” value ([3]; compound 0.1 nM) was 0.004608* and 0.002375 and 0.002849 and the “cAMP assay signal” value ([3]; compound 1 nM) was 0.002336 and 0.002132 and 0.002532. For the same compound, the “cAMP assay signal” value ([3]; compound 10 nM) was 0.002645 and 0.002538 and 0.002288, the “cAMP assay signal” value ([3]; compound 100 nM) was 0.002008 and 0.002532 and 0.002421 and the “cAMP assay signal” value ([3]; compound 1000 nM) was 0.002545 and 0.002096 and 0.002506. The “cAMP assay signal” value ([3]; compound 10000 nM) was 0.001462 and 0.001302 and 0.001515, the “cAMP assay signal” value ([3]; compound 100000 nM) was 0.0002057* and 0.0001994* and 0.0002162* and the “agonism, inhibition of forskolin-stimulated cAMP” value ([3]; hCB1-expressing cells, in words) was “modest agonism”. For the same compound, the “Barr2+GRK2 hCB1 response” value ([4]; Log [Compound] (M) -4.22186) was 27.1048, the “Barr2+GRK2 hCB1 response” value ([4]; Log [Compound] (M) -4.63927) was -24.5851 and the “Barr2+GRK2 hCB1 response” value ([4]; Log [Compound] (M) -5.05788) was -35.4335. The “Barr2+GRK2 hCB1 response” value ([4]; Log [Compound] (M) -5.47381) was -53.9398, the “Barr2+GRK2 hCB1 response” value ([4]; Log [Compound] (M) -5.89285) was -49.1537 and the “Barr2+GRK2 hCB1 response” value ([4]; Log [Compound] (M) -6.31878) was -46.282. For the same compound, the “Barr2+GRK2 hCB1 response” value ([4]; Log [Compound] (M) -6.72585) was -46.9202, the “Barr2+GRK2 hCB1 response” value ([4]; Log [Compound] (M) -7.14267) was -54.5779 and the “Barr2+GRK2 hCB1 response” value ([4]; Log [Compound] (M) -7.55284) was -56.4924. The “Barr2+GRK2 hCB1 response” value ([4]; Log [Compound] (M) -8) was -48.8346, the “Barr2+GRK2 hCB1 response” value ([4]; Log [Compound] (M) -8.22186) was -5.441 and the “Barr2+GRK2 hCB1 response” value ([4]; Log [Compound] (M) -8.39794) was -31.2856. For the same compound, the “Barr2+GRK2 hCB1 response” value ([4]; Log [Compound] (M) -8.68787) was -55.2161, the “Barr2+GRK2 hCB1 response” value ([4]; Log [Compound] (M) -9.15521) was -35.1145 and the “Barr2+GRK2 hCB1 response” value ([4]; Log [Compound] (M) -9.61989) was -47.5583. The “Barr2+GRK2 hCB1 response” value ([4]; Log [Compound] (M) -10.0969) was -52.0253, the “Barr2+GRK2 hCB1 response” value ([4]; Log [Compound] (M) -10.5529) was -34.4763 and the “Barr2+GRK2 hCB1 response” value ([4]; Log [Compound] (M) -11.0177) was -42.1341. The “Barr2+GRK2 hCB1 response” value ([4]; Log [Compound] (M) -11.4949) was -48.5155, the “Barr2+GRK2 hCB1 response” value ([4]; Log [Compound] (M) -11.9208) was -49.1537 and the “Barr2+GRK2 hCB1 response” value ([4]; Log [Compound] (M) -12.3979) was -55.5351. For the same compound, the “Barr2+GRK2 hCB1 response” value ([4]; Log [Compound] (M) -12.8861) was -37.0289, the “Barr2+GRK2 hCB1 response” value ([4]; Log [Compound] (M) -13.3979) was -10.8649 and the “Gi1 hCB1” value ([4]; Log [Compound] (M) -4.22186) was 20.433. For the same compound, the “GoB hCB1” value ([4]; Log [Compound] (M) -4.22186) was 28.3973, the “Gi1 hCB1” value ([4]; Log [Compound] (M) -4.63927) was 13.3222 and the “GoB hCB1” value ([4]; Log [Compound] (M) -4.63927) was 13.6053. The “Gi1 hCB1” value ([4]; Log [Compound] (M) -5.05788) was 9.41, the “GoB hCB1” value ([4]; Log [Compound] (M) -5.05788) was 19.1089 and the “Gi1 hCB1” value ([4]; Log [Compound] (M) -5.47381) was 7.763. For the same compound, the “GoB hCB1” value ([4]; Log [Compound] (M) -5.47381) was 13.8657, the “Gi1 hCB1” value ([4]; Log [Compound] (M) -5.89285) was 5.34 and the “GoB hCB1” value ([4]; Log [Compound] (M) -5.89285) was 8.258. The “Gi1 hCB1” value ([4]; Log [Compound] (M) -6.31878) was 2.791, the “GoB hCB1” value ([4]; Log [Compound] (M) -6.31878) was 3.397 and the “Gi1 hCB1” value ([4]; Log [Compound] (M) -6.72585) was -1.469. For the same compound, the “GoB hCB1” value ([4]; Log [Compound] (M) -6.72585) was -0.5617, the “Gi1 hCB1” value ([4]; Log [Compound] (M) -7.14267) was -3.893 and the “GoB hCB1” value ([4]; Log [Compound] (M) -7.14267) was -2.489. For the same compound, the “Gi1 hCB1” value ([4]; Log [Compound] (M) -7.55284) was -6.6323, the “GoB hCB1” value ([4]; Log [Compound] (M) -7.55284) was -6.586 and the “Gi1 hCB1” value ([4]; Log [Compound] (M) -8) was -3.861. The “GoB hCB1” value ([4]; Log [Compound] (M) -8) was -8.513, the “Gi1 hCB1” value ([4]; Log [Compound] (M) -8.22186) was 0.6527 and the “GoB hCB1” value ([4]; Log [Compound] (M) -8.22186) was -4.433. The “Gi1 hCB1” value ([4]; Log [Compound] (M) -8.39794) was -6.221, the “GoB hCB1” value ([4]; Log [Compound] (M) -8.39794) was -7.35 and the “Gi1 hCB1” value ([4]; Log [Compound] (M) -8.68787) was -4.3993. For the same compound, the “GoB hCB1” value ([4]; Log [Compound] (M) -8.68787) was -5.892, the “Gi1 hCB1” value ([4]; Log [Compound] (M) -9.15521) was -5.159 and the “GoB hCB1” value ([4]; Log [Compound] (M) -9.15521) was -7.419. The “Gi1 hCB1” value ([4]; Log [Compound] (M) -9.61989) was -4.621, the “GoB hCB1” value ([4]; Log [Compound] (M) -9.61989) was -5.371 and the “Gi1 hCB1” value ([4]; Log [Compound] (M) -10.0969) was -6.442. For the same compound, the “GoB hCB1” value ([4]; Log [Compound] (M) -10.0969) was -8.097, the “GoB hCB1” value ([4]; Log [Compound] (M) -10.5529) was -7.003 and the “Gi1 hCB1” value ([4]; Log [Compound] (M) -11.0177) was -5.524. The “GoB hCB1” value ([4]; Log [Compound] (M) -11.0177) was -9.104, the “Gi1 hCB1” value ([4]; Log [Compound] (M) -11.4949) was -5.872 and the “GoB hCB1” value ([4]; Log [Compound] (M) -11.4949) was -8.479. The “Gi1 hCB1” value ([4]; Log [Compound] (M) -11.9208) was -6.363, the “GoB hCB1” value ([4]; Log [Compound] (M) -11.9208) was -7.454 and the “Gi1 hCB1” value ([4]; Log [Compound] (M) -12.3979) was -5.935. The “GoB hCB1” value ([4]; Log [Compound] (M) -12.3979) was -8.392, the “Gi1 hCB1” value ([4]; Log [Compound] (M) -12.8861) was -4.653 and the “GoB hCB1” value ([4]; Log [Compound] (M) -12.8861) was -8.739. For the same compound, the “Gi1 hCB1” value ([4]; Log [Compound] (M) -13) was -5.191, the “GoB hCB1” value ([4]; Log [Compound] (M) -13) was -7.871 and the “Gi1 hCB1” value ([4]; Log [Compound] (M) cell empty) was -4.795. For the same compound, the “GoB hCB1” value ([4]; Log [Compound] (M) cell empty) was -4.173, the “pEC50 [95% CI]” value ([4]; hCB1 GoB) was 5.6 [3.0 – 6.2] and the Emax ([4]; read-out: Emax [95% CI], hCB1 Gi1) was 49%. For the same compound, the Emax ([4]; read-out: Emax [95% CI], hCB1 GoB) was 36%, the “radioligand binding remaining, competition curve (Figure2e), replicate values” (shortened to “radioligand binding remaining”) ([5]; log[drug] -3.643) was 3.776 and 13.0342 and 10.5924 and the “radioligand binding remaining” value ([5]; log[drug] -4.35655) was -5.187 and 0.4808 and -3.246. For the same compound, the “radioligand binding remaining” value ([5]; log[drug] -5.07) was 1.22 and 4.986 and -3.564, the “radioligand binding remaining” value ([5]; log[drug] -5.783) was 44.8894 and 48.8782 and 38.7216 and the “radioligand binding remaining” value ([5]; log[drug] -6.496) was 82.7231 and 84.8647 and 75.4685. For the same compound, the “radioligand binding remaining” value ([5]; log[drug] -7.21) was 103.471 and 87.6068 and 85.0402, the “radioligand binding remaining” value ([5]; log[drug] -7.923) was 98.6842 and 84.2236 and 81.6265 and the “radioligand binding remaining” value ([5]; log[drug] -8.636) was 102.059 and 98.0413 and 100.669. The “pKi [95% CI]” value ([5]; rCB1) was 6.16 [5.99 – 6.34].
